Activity calls are given as the source filed them.
Tests used:
[1] = fluconazole-exposed Candida albicans growth modulators – fluorescence, retest, confirmation (AID 2467); type: functional, cell-based
[2] = NIH-3T3 fibroblast cytotoxicity, dose response, cytotoxicity control, cell-based, fluorescence, Alamar Blue, secondary assay (AID 2327); type: functional;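 note: NIH-3T3 mouse fibroblasts cultured with fluconazole at 8 µg/mL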
[3] = cells; type: functional, cell-based
[4] = cells; type: functional, cell-based; remark: listed apart in the source
[5] = molecular target: Cytochrome P450 3A4 (Homo sapiens, UniProt P08684); conditions: Potency;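 note: confirmatory qHTS run detecting inhibitors and substrates of CYP3A4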
Chain of Cytochrome P450 3A4 (P08684 whole entry): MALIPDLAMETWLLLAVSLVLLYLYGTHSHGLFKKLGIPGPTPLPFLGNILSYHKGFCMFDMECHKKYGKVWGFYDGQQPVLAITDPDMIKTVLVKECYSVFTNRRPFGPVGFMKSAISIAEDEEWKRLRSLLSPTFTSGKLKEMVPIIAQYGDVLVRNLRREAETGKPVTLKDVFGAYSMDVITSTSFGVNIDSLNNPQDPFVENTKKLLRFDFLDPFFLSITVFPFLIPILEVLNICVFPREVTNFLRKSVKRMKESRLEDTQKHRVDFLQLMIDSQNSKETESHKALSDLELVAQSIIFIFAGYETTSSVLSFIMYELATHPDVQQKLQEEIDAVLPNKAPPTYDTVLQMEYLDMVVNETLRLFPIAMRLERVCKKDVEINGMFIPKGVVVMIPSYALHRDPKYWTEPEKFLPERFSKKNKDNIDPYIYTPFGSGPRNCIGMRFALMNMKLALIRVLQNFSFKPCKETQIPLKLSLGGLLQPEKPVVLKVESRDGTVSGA

[6] = cells; type: functional
[7] = reduction of Shn3 3'UTR-driven luciferase in osteoblasts – cell-based, Clone20 osteoblasts, firefly luciferase, cherry-picked, dose response (AID 624132); type: functional;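 note: firefly luciferase luminescence from reporter carrying the Shn3 3'UTR in osteoblasts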
[8] = non-specific 3'UTR reporter inhibition in Clone20-Shn3RL – cell-based, Renilla luciferase, cherry-picked, counter-screen for Shn3 inhibitor project, dose response (AID 624133); type: functional
[9] = loss of viability in HepG2 cells – cell-based, CellTiter-Glo, cherry-picked, cytotoxicity control for Shn3 inhibitor project, dose response (AID 624134); type: functional
[10] = molecular target: T1, Leucine aminopeptidase (Plasmodium falciparum 3D7, UniProt Q8IL11); experiment: P. falciparum M17LAP inhibitors, primary screen, biochemical, fluorogenic H-Leu-NHMec substrate, 1536-well (AID 1619); type: functional
T1 sequence (Q8IL11 whole entry): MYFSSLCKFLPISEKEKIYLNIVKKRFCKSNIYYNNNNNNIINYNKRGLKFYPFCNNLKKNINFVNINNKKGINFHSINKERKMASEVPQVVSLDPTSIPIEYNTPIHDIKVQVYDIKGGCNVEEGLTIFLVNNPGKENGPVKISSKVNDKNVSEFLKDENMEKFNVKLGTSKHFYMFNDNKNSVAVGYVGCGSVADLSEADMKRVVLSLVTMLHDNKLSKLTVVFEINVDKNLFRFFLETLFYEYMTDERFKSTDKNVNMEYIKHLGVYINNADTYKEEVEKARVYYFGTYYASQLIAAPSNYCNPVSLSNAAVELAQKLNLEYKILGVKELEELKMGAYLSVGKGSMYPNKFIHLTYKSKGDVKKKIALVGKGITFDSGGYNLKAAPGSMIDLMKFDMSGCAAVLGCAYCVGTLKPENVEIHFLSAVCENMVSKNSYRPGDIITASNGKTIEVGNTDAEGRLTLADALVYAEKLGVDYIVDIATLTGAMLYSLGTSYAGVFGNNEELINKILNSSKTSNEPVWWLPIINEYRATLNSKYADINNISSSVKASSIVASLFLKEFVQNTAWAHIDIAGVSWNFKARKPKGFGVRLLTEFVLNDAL

[11] = molecular target: Cytochrome P450 2C9 (Homo sapiens, UniProt P11712)
Chain of Cytochrome P450 2C9 (P11712 whole entry): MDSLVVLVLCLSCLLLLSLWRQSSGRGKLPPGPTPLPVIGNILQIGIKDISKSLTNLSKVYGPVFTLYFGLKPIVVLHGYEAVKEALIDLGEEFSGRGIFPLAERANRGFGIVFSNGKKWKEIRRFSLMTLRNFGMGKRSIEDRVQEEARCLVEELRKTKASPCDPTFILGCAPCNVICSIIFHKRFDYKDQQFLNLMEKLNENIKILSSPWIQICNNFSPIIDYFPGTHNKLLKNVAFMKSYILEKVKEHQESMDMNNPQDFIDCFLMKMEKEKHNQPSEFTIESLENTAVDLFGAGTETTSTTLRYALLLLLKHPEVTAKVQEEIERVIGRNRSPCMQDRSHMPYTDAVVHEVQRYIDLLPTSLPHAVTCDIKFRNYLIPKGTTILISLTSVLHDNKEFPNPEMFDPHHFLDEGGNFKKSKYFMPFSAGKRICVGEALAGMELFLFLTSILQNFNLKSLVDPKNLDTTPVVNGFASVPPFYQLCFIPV

[12] = molecular target: T2, Ubiquitin-conjugating enzyme E2 N (Homo sapiens, UniProt P61088); type: functional;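 note: Dose-response confirmation in a TR-FRET assay detecting UBC13-driven polyubiquitin chain formation, inhibition measured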
T2 sequence (P61088 whole entry): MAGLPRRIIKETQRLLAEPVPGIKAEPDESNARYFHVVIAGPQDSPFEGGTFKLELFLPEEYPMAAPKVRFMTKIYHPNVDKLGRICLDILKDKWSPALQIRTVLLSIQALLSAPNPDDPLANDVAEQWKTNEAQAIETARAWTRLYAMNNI

[13] = molecular target: Cytochrome P450 2C19 (Homo sapiens, UniProt P33261); experiment: Cytochrome panel assay with activity outcomes. Panel member name: p450-cyp2c19 Compounds with AC50 equal or less than 10 uM are considered active; type: functional; conditions: read-out: AC50
Chain of Cytochrome P450 2C19 (P33261 whole entry): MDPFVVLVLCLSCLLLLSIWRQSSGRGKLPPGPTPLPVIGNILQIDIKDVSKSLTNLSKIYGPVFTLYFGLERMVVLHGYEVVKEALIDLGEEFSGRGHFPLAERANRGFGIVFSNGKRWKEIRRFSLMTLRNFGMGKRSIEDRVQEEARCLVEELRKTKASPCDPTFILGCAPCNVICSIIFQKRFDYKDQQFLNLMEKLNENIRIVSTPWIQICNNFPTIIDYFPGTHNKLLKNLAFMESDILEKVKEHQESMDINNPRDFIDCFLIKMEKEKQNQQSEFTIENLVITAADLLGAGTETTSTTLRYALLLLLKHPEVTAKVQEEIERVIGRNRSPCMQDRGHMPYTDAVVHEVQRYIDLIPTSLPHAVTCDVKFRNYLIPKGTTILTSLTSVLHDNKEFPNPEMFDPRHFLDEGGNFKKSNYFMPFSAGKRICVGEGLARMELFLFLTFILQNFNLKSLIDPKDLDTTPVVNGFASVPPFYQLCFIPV

[14] = molecular target: T3, Rac GTPase-activating protein 1 (Homo sapiens, UniProt Q9H0H5); experiment: blockers of MgcRacGAP-driven Rac1 GTP hydrolysis – biochemical, ADP Hunter fluorescence, primary and confirmatory, confirmation (AID 624330); type: functional
T3 sequence (Q9H0H5 whole entry): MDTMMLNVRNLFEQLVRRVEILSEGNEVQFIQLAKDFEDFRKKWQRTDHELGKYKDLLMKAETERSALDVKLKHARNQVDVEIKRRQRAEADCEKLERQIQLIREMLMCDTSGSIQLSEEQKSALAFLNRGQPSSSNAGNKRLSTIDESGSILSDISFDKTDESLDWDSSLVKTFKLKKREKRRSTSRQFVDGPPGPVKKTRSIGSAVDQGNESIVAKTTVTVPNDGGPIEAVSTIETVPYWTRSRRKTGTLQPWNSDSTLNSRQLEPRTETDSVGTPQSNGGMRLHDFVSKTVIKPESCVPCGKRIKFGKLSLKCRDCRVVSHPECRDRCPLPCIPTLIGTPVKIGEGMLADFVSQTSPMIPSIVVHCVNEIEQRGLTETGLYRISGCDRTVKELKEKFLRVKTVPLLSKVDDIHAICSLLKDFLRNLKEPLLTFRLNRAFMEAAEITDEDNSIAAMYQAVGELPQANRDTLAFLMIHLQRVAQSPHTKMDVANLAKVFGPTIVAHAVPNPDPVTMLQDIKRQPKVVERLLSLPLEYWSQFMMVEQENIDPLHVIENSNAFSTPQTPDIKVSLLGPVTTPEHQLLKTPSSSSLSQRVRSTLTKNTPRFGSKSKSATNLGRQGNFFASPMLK

[15] = molecular target: T4, Calpain-2 catalytic subunit (Sus scrofa, UniProt P43367); experiment: m-calpain protease blockers, concentration series – biochemical, fluorogenic peptide substrate, dose response (AID 1420); type: functional
T4 sequence (P43367 whole entry): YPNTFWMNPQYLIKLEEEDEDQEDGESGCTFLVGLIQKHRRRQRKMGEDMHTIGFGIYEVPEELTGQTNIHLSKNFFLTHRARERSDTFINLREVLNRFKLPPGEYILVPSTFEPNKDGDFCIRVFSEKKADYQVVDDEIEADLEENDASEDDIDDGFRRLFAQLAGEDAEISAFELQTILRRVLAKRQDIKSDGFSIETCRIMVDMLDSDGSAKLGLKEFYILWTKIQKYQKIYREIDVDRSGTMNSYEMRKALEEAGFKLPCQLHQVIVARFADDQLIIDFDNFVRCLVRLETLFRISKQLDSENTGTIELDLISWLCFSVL

[16] = viability of HCT116 lacking mutant beta-catenin – cell-based, human colon tumor, dose response (AID 1045); type: functional;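 note: HCT116 colon tumor cells with beta catenin knocked out; cells exposed to compound for 60 hours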
[17] = viability of PTEN-deleted HCT116 cells – cell-based, HCT116 PTEN knockout, dose response (AID 1047); type: functional;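 note: HCT116 colon tumor cells with PTEN knocked out; cells exposed to compound for 60 hours before readout; potency for loss of cell viability measured by luminescence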
[18] = molecular target: T5, Cytochrome P450 1A2 (Homo sapiens, UniProt P05177);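 note: PubChem cytochrome P450 panel assay, CYP1A2 panel member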
T5 sequence (P05177 whole entry): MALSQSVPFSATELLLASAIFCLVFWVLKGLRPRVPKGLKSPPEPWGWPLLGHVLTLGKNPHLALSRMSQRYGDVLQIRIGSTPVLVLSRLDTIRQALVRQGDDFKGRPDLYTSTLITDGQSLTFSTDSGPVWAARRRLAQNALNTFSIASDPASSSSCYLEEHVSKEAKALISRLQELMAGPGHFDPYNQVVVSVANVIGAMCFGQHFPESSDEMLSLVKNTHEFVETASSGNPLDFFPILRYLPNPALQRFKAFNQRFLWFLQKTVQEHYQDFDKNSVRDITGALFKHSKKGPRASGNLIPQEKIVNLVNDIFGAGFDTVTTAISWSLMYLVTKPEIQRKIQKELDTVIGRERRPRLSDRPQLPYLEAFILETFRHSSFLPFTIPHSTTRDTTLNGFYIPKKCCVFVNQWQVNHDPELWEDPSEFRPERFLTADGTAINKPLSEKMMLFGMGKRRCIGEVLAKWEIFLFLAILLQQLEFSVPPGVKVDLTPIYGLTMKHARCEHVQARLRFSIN

CC(=O)c1cc(C#N)c(N2CCCC2)nc1C
EC50 [1]: > 38 µM (not active)
EC50 [2]: > 160 µM (inactive)

CC(C)=NOC(=O)c1c(C)noc1-c1snnc1C
EC50 [3]: > 350 µM (not active)
EC50 [4]: > 350 µM (not active)

Cn1c(=O)cc(N)n(Cc2ccccc2)c1=O
AC50 [5]: 39.8 µM (inconclusive)

CCCN1C(=O)S/C(=C\c2ccc(N3CCOCC3)o2)C1=O
IC50 [6]: 21.9 µM (active)
AC50 [7]: 6.37 µM (active)
AC50 [8]: 25.8 µM (active)
AC50 [9]: > 70 µM (inactive)

Cc1nn(C)cc1S(=O)(=O)NCc1ccc2c(c1)OCO2
EC50 [3]: > 350 µM (not active)
EC50 [4]: > 350 µM (not active)

Cc1sc(NC(=O)C2CC=CCC2C(=O)O)c(C(=O)OC(C)C)c1C (stereo not drawn)
IC50 [10]: 24.1 µM (active)

N#CCCn1c(=O)c(-c2ccc(Cl)cc2)nc2cnc(N3CCOCC3)nc21
AC50 [11]: inconclusive

CCN(CC)CCCCn1c(-c2ccccc2)nc2c(N3CCOCC3)nc(C)nc21
AC50 [5]: 7.94 µM (inconclusive)

Cn1c(=O)c2c(ncn2Cc2ccc(Cl)cc2)n(C)c1=O
IC50 [12]: > 20 µM (inactive)

Cc1ccc(C(=O)Nc2ccc3c(c2)nc(CCNC(=O)c2ccco2)n3C)cc1
EC50 [3]: > 350 µM (not active)
EC50 [4]: > 350 µM (not active)

C[C@H](NC(=O)/C(C#N)=C/c1ccc(O)c(O)c1)c1ccccc1
AC50 [13]: 31.6 µM (inconclusive)
AC50 [11]: inconclusive

C/C(=N\NC(=O)CSCc1ccccc1Cl)c1cc(O)ccc1O
EC50 [1]: > 38 µM (not active)
IC50 [14]: 24.3 µM (active)
EC50 [2]: > 160 µM (inactive)

O=C(Nc1cccc(F)c1)c1cc(S(=O)(=O)NCCC2=CCCCC2)ccc1F
AC50 [7]: 4.16 µM (active)
AC50 [8]: 13.9 µM (active)
AC50 [9]: 39.8 µM (active)
IC50 [12]: > 20 µM (inactive)

CCCCN(CC)CCNC(=O)CNC(=O)Cn1ccc2ccccc2c1=O
IC50 [15]: 46.5 µM (not active)

CCSc1nnc(-c2ccccc2/N=C/c2c(C)nn(-c3ccccc3)c2O)c(O)n1
IC50 [10]: 39.6 µM (active)

CC(=O)Nc1ccc(Nc2nc(C)c([N+](=O)[O-])c(Nc3ccc(NC(C)=O)cc3)n2)cc1
EC50 [3]: > 350 µM (not active)
EC50 [4]: > 350 µM (not active)

CCc1ccc(C(=O)CSc2n[nH]c(C)n2)cc1
IC50 [10]: 63.4 µM (active)

O=C(CSc1nc(-c2ccco2)cc(C(F)(F)F)n1)Nc1ccc(C(=O)N2CCCCC2)cc1
EC50 [16]: 28.8 µM (active)
AC50 [7]: 2.87 µM (active)
AC50 [8]: 0.774 µM (active)
AC50 [9]: 51 µM (active)
EC50 [17]: 62.7 µM (active)

Cc1ccc(C(=O)O/N=C/c2c(Cl)n(C)c3ccccc23)cc1
AC50 [18]: 1.12 µM (inconclusive)
AC50 [11]: inconclusive

Source: ChEMBL document CHEMBL1201862, “PubChem BioAssay data set” (2004)
